Patent US20260240158A1, “MICROBIOCIDAL THIAZOLE DERIVATIVES” (SYNGENTA CROP PROTECTION AG, priority 2019, published 2026)
Read-outs that look alike come from different tables or passages of the source.

Legend:
[1] = test system: Mycosphaerella graminicola (Septoria tritici); assay: Mycosphaerella graminicola (Septoria tritici) / liquid culture (Septoria blotch); type: cell-based; conditions: Zymoseptoria tritici, read-out: control of Mycosphaerella graminicola
[2] = test system: Phaeosphaeria nodorum (Septoria nodorum); assay: Phaeosphaeria nodorum (Septoria nodorum) / wheat / leaf disc preventative (glume blotch); type: in vivo; conditions: 200 ppm, 5-7 days after application, vs untreated control
Excerpt: Phaeosphaeria Nodorum (Septoria nodorum)/Wheat/Leaf Disc Preventative (Glume Blotch) Wheat leaf segments cv. […] The leaf disks are inoculated with a spore suspension of the fungus 2 days after application. […] P3.

Pyrenophora teres = Pyrenophora teres / barley / leaf disc preventative (net blotch); type: in vivo; conditions: 200 ppm, 5-7 days after application, vs untreated control
Excerpt: Pyrenophora teres/Barley/Leaf Disc Preventative (Net Blotch) Barley leaf segments cv. […] The leaf segments are inoculated with a spore suspension of the fungus 2 days after application. […] P5.

[3] = 20 ppm, liquid culture, growth inhibition photometrically 4-5 days after application, vs untreated control

Row | Compound | inhibition of growth at 20 ppm [1, 3] | other results
1 | CCCCNC(=O)c1nc(Nc2cnsc2)sc1C [Compound P1, N-butyl-2-(isothiazol-4-ylamino)-5-methyl-thiazole-4-carboxamide] | ≥ 80% | 
2 | Cc1sc(Nc2cnsc2)nc1C(=O)NCC(C)(C)C [Compound P2, N-(2,2-dimethylpropyl)-2-(isothiazol-4-ylamino)-5-methyl-thiazole-4-carboxamide] | ≥ 80% | 
3 | Cc1sc(Nc2cnsc2)nc1C(=O)NCCC(C)C [Compound P3, N-isopentyl-2-(isothiazol-4-ylamino)-5-methyl-thiazole-4-carboxamide] | ≥ 80% | control of Phaeosphaeria nodorum [2]: at least 80%
4 | Cc1sc(Nc2cnsc2)nc1C(=O)NC(C)c1ccccc1 (stereo not shown) [Compound P4, 2-(isothiazol-4-ylamino)-5-methyl-N-(1-phenylethyl) thiazole-4-carboxamide] | ≥ 80% | 
5 | Cc1sc(Nc2cnsc2)nc1C(=O)NC1CCC12CCCC2 (stereo not shown) [Compound P5, 2-(isothiazol-4-ylamino)-5-methyl-N-spiro 3.4 octan-3-yl-thiazole-4-carboxamide] | ≥ 80% | control of Pyrenophora teres (Pyrenophora teres): at least 80%
6 | Cc1sc(Nc2cnsc2)nc1C(=O)NC1CCC1(C)C (stereo not shown) [Compound P6, N-(2,2-dimethylcyclobutyl)-2-(isothiazol-4-ylamino)-5-methyl-thiazole-4-carboxamide] |  | inhibition of growth at 20 ppm [1]: ≥ 80%
7 | COCC(=O)N(c1cnsc1)c1nc(C(=O)NC2CCC23CCCC3)c(C)s1 (stereo not shown) [Compound P8, 2-isothiazol-4-yl-(2-methoxyacetyl) amino-5-methyl-N-spiro 3.4 octan-3-yl-thiazole-4-carboxamide] | ≥ 80% | 
8 | Cc1sc(N(C#N)c2cnsc2)nc1C(=O)NC1CCC12CCCC2 (stereo not shown) [Compound P9, 2-cyano(isothiazol-4-yl)amino-5-methyl-N-spiro 3.4 octan-3-yl-thiazole-4-carboxamide] | ≥ 80% | 
